Values quoted from earlier work, collected in patent publication US20190105277A1, “PHARMACEUTICAL COMPOSITION COMPRISING AN ATYPICAL ANTIPSYCHOTIC AGENT AND METHOD FOR THE PREPARATION THEREOF” (PHARMATHEN S.A., priority 2016, published 2019).
Read-outs that look alike come from different tables or passages of the source.

solubility (in 0.1N HCl): slightly soluble
solubility (in dichloromethane): sparingly soluble
solubility (in water): insoluble
Structure (SMILES): Cc1nc2n(c(=O)c1CCN1CCC(c3noc4cc(F)ccc34)CC1)CCCC2O (stereo not drawn) [Paliperidone, 3-[2-[4-(6-fluoro-1,2-benzisoxazol-3-yl)-1-piperidinyl]ethyl]-6,7,8,9-tetrahydro-9-hydroxy-2-methyl-4H-pyrido[1,2-a]pyrimidin-4-one]
